The values below come from ChEMBL document CHEMBL1201862, “PubChem BioAssay data set” (2004).

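48-hour exposure; five concentrations; linearly interpolated endpoints. GI50 marks 50% less growth.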 The source made the active and inactive calls. Rule as the data show it: active = GI50 up to about 1.1 µM and inactive = higher. Bounds are passed on as bounds.

Test systems include SNB-19; M14; NCI-H460; OVCAR-4; ACHN; NCI-H23; UACC-62; SF-268; OVCAR-5; K562; SN12C; SF-539; SK-OV-3; UACC-257; SR; HCT-15.
Holding throughout (assay): NCI anticancer screen, dose series, 48 h

For the compound `COc1c(-c2ccccc2)nc2ccc(Oc3ccccc3)nn12`, the GI50 in the test with SNB-19 was > 84.5 µM (inactive); in the test with M14 it was > 59.8 µM (inactive); with NCI-H460, 36.6 µM (inactive); with OVCAR-4 it was > 36.3 µM (inactive); in the test with ACHN it was > 58.7 µM (inactive); in the test with NCI-H23, > 49 µM (inactive). Further, the GI50 was > 69.7 µM (inactive) in the test on UACC-62; > 56.4 µM (inactive) with SF-268; > 77.3 µM (inactive) in the test with OVCAR-5; 14.6 µM (inactive) with K562; > 56.6 µM (inactive) with SN12C; > 59.4 µM (inactive) in the test with SF-539. The GI50 with SK-OV-3 is > 100 µM (inactive); in the test on UACC-257 it was > 54.8 µM (inactive); in the test on SR, 13.8 µM (inactive); with HCT-15 it was 17.7 µM.

As to `CCOc1ccc(/N=N/c2c(-c3ccccc3)nn(C(=O)CC(=O)Nc3ccccc3Cl)c2-c2ccccc2)cc1`, the GI50 is > 100 µM (inactive) with SNB-19; > 100 µM (inactive) in the test on M14; 46.5 µM (inactive) in the test on NCI-H460; 47.4 µM (inactive) in the test with OVCAR-4; 33.3 µM (inactive) with ACHN; 56.9 µM (inactive) in the test with NCI-H23. Further, the GI50 with UACC-62 is 77.1 µM (inactive); with SF-268 it was 39 µM (inactive); in the test on OVCAR-5, > 100 µM (inactive); in the test on K562, 30.2 µM (inactive); with SN12C it was > 100 µM (inactive); with SF-539, 58.3 µM (inactive). The GI50 with SK-OV-3 is > 100 µM (inactive); in the test on UACC-257, 80.4 µM (inactive); with SR, 72.8 µM (inactive).

On to `N=C1N(c2ccccc2)C(=O)C23CCCC2C13N1CCOCC1` (configuration not stated), for which the GI50 in the test with SNB-19, with M14, with NCI-H460, with OVCAR-4, in the test with ACHN and in the test with NCI-H23 was > 100 µM (inactive) throughout. In addition, the GI50 with UACC-62, with SF-268, in the test with OVCAR-5, in the test with K562, in the test on SN12C and with SF-539 was > 100 µM (inactive) each time. For the same compound, the GI50 with SK-OV-3 was > 100 µM (inactive); in the test with UACC-257, > 100 µM (inactive); with SR, > 100 µM (inactive); in the test on HCT-15, greater than 100 µM.

With `O=[N+]([O-])c1ccc2occ3c2c1CCC3`, the GI50 in the test with SNB-19, in the test on M14, in the test on NCI-H460, with OVCAR-4, with ACHN and in the test on NCI-H23 was > 100 µM (inactive) throughout. Moreover, the GI50 was > 100 µM (inactive) in the test on UACC-62; > 100 µM (inactive) in the test with SF-268; 86.1 µM (inactive) in the test on OVCAR-5; > 100 µM (inactive) with K562; > 100 µM (inactive) in the test with SN12C; > 100 µM (inactive) in the test on SF-539. Besides, the GI50 is > 100 µM (inactive) with SK-OV-3, > 100 µM (inactive) in the test on UACC-257, > 100 µM (inactive) in the test on SR and greater than 100 µM with HCT-15.

`CCOC(=N)CC(=O)Nc1ccccc1`: the GI50 is > 100 µM (inactive) in the test on SNB-19; > 46.5 µM (inactive) in the test on M14; > 46.5 µM (inactive) in the test on NCI-H460; 34.5 µM (inactive) in the test on OVCAR-4; > 46.5 µM (inactive) with ACHN; > 46.5 µM (inactive) in the test with NCI-H23. In addition, the GI50 was > 100 µM (inactive) with UACC-62; > 46.5 µM (inactive) in the test with SF-268; > 100 µM (inactive) in the test with OVCAR-5; 22.1 µM (inactive) in the test on K562; > 46.5 µM (inactive) with SN12C; > 46.5 µM (inactive) in the test on SF-539. Moreover, the GI50 is > 100 µM (inactive) with SK-OV-3, > 46.5 µM (inactive) in the test with UACC-257, > 39.9 µM (inactive) in the test on SR and 32.8 µM with HCT-15.

For the compound `C/C=C/COC(=O)CO[N+](=O)[O-]`, the GI50 in the test on SNB-19, with M14, in the test on NCI-H460, in the test on OVCAR-4, in the test with ACHN and with NCI-H23 was > 100 µM (inactive) throughout. Further, the GI50 is > 10 µM (inactive) in the test with UACC-62; > 100 µM (inactive) in the test on SF-268; > 100 µM (inactive) in the test on OVCAR-5; > 100 µM (inactive) in the test with K562; > 100 µM (inactive) in the test on SN12C; > 100 µM (inactive) in the test with SF-539. Also, the GI50 in the test on SK-OV-3 is > 100 µM (inactive); in the test with UACC-257, > 100 µM (inactive); in the test on SR, > 100 µM (inactive); in the test on HCT-15 it was greater than 100 µM.

Take `C1CCN(c2nc(=[N+]3CCCCC3)ss2)CC1`: the GI50 in the test with SNB-19 is > 100 µM (inactive); in the test on M14 it was > 100 µM (inactive); in the test on NCI-H460 it was 48.8 µM (inactive); in the test on OVCAR-4, > 100 µM (inactive); with ACHN, > 100 µM (inactive); with NCI-H23, 73.3 µM (inactive). Besides, the GI50 was > 100 µM (inactive) in the test with UACC-62; 82 µM (inactive) with SF-268; > 100 µM (inactive) in the test with OVCAR-5; 90.6 µM (inactive) with K562; > 100 µM (inactive) in the test on SN12C; > 100 µM (inactive) in the test on SF-539. For the same compound, the GI50 is 71.9 µM (inactive) in the test on SK-OV-3, > 100 µM (inactive) with UACC-257, > 100 µM (inactive) in the test on SR and greater than 100 µM in the test on HCT-15.

In the case of `CCOC(=O)C1C(=O)C(C(=O)OCC)C(c2ccccc2)N(C)C1c1ccccc1` (configuration not stated), the GI50 in the test with SNB-19, in the test on M14, in the test with NCI-H460, in the test on OVCAR-4, in the test on ACHN and with NCI-H23 was > 100 µM (inactive) throughout. Besides, the GI50 in the test with UACC-62 was 65.6 µM (inactive); with SF-268, > 100 µM (inactive); in the test on OVCAR-5, > 100 µM (inactive); in the test on K562 it was > 100 µM (inactive); in the test on SN12C, > 100 µM (inactive); with SF-539 it was > 100 µM (inactive). The GI50 in the test with SK-OV-3 was > 100 µM (inactive); in the test with UACC-257 it was > 100 µM (inactive); in the test on SR, > 100 µM (inactive); in the test on HCT-15, 82.4 µM.

For `CCCCCCC(C)CCCCCCCCCCC(=O)O` (configuration not stated), the GI50 in the test on SNB-19, in the test on M14, in the test with NCI-H460, in the test with OVCAR-4, in the test on ACHN and with NCI-H23 was > 100 µM (inactive) in each case. For the same compound, the GI50 in the test on UACC-62, with SF-268, in the test with OVCAR-5, with K562, in the test with SN12C and in the test with SF-539 was > 100 µM (inactive) each time. For the same compound, the GI50 in the test with SK-OV-3, in the test on UACC-257 and in the test on SR was > 100 µM (inactive) throughout.
